This note sets out measurements from patent US4820734A, “Phenethylamine derivatives” (Hoffmann-La Roche Inc., priority 1983, dated 1989).

Counter-ions that a name gives are not always drawn.

Data set [1] can be described thus: Writhing Test on the mouse (analgesic activity). The class given is in vivo. Particulars: po. The text has this: (§1) As already mentioned earlier, the compounds of formula I and their pharmaceutically acceptable acid addition salts have valuable pharmacodynamic properties. In particular, they have interesting analgesic, anti-depressant and acute inflammation-inhibiting properties. […] In the following Table there are given the results determined in these tests for some representative members of the class of compound defined by general formula I. Moreover, the Table contains data concerning the acute toxicity of these compounds (LD50 after single oral administration to mice).
(In general: An intraperitoneal irritant provokes the stretching counted in writhing tests.)

For the next data set, the system named is serotonin-uptake. Description: Serotonin-uptake Test (antidepressant activity; M. J. Kuhar et al.). The class given is biochemical.
Source text: as §1

Data set [2] in a line: Acute toxicity, LD50 after single oral administration to mice. Particulars: mouse, in vivo.
Source text: as §1

With `CN(C)C[C@@H](c1ccc(Cl)cc1)[C@@H]1CCCCC1=O` (relative stereo) [rac-(2S*)-2-/(R*)-4-chloro-α-[(dimethylamino)methyl]benzyl/cyclohexanone hydrochloride], the ED50 (as a rule, the dose that gives a 50% effect, or the effect in half of the subjects) in data set [1] turned out to be 22 mg/kg. 240 nM corresponded to half-maximal inhibition in the data set with serotonin-uptake (IC50). The LD50 (in general, the dose at which mortality reaches 50%) in data set [2] was in the range of 156 to 312 mg/kg.

In data set [1], `CN(C)C[C@@H](c1ccc(Cl)cc1)[C@@H]1CCCC[C@@H]1O` [(+)-(1S)-cis-2-/(R)-4-chloro-α-[(dimethylamino)methyl]benzyl/cyclohexanol hydrochloride] yielded an ED50 of 14 mg/kg. Besides, the IC50 (commonly the concentration needed to halve the response being measured) in the data set with serotonin-uptake was determined as 110 nM. The compound also displayed an LD50 in data set [2] of 125 to 250 mg/kg.

Turning to `CN(C)C[C@@H](c1ccc(Cl)cc1)[C@@H]1CCCC[C@@H]1O` (relative stereo) [rac-(1S*)-cis-2-/(R*)-4-chloro-α-[(dimethylamino)methyl]benzyl/cyclohexanol hydrochloride], the ED50 in data set [1] turned out to be 18 mg/kg. Besides, in the data set with serotonin-uptake, the IC50 was 88 nM. Further, the LD50 in data set [2] lay within 312 to 625 mg/kg.

In data set [1], `CN(C)C[C@H](c1ccc(Cl)cc1)[C@H]1CCCC[C@H]1O` [(-)-(1R)-cis-2-/(S)-4-chloro-α-[(dimethylamino)methyl]benzyl/cyclohexanol hydrochloride] displayed an ED50 of 19 mg/kg. Besides, in the data set with serotonin-uptake, the IC50 stood at 55 nM. Besides, the LD50 in data set [2] fell in the range of 125 to 250 mg/kg.

Compound `COc1ccc([C@H](CN(C)C)[C@@H]2CCCC[C@@H]2O)cc1` (relative stereo) [rac-(1S*)-cis-2-/(R*)-4-methoxy-α-[(dimethylamino)methyl]benzyl/cyclohexanol hydrochloride] gave an ED50 in data set [1] of 23 mg/kg. In the data set on serotonin-uptake, this compound returned a half-maximal inhibitory concentration (IC50) of 120 nM. In data set [2], this compound gave a 50% lethal dose (LD50) of 250 to 500 mg/kg.

Take `CN(C)C[C@@H](c1ccc(O)cc1)[C@@H]1CCCC[C@@H]1O` (relative stereo) [rac-(1S*)-cis-2-/(R*)-α-[(dimethylamino)methyl]-4-hydroxybenzyl/cyclohexanol]: in data set [1], the 50% effect level (ED50) was put at a dose of 8.4 mg/kg. This compound also came in with an IC50 in the data set on serotonin-uptake of 180 nM. Besides, the LD50 in data set [2] was in the range of 500 to 1000 mg/kg.

With `COc1ccc([C@H](CN(C)C)[C@@H]2CCCC[C@@H]2O)cc1OC` (relative stereo) [rac-(1S*)-cis-2-/(R*)-α-[(dimethylamino)methyl]-3,4-dimethoxybenzyl/cyclohexanol hydrochloride], the 50% effective dose (ED50) in data set [1] was 10 mg/kg. In the data set with serotonin-uptake, this compound came in with an IC50 of 100 nM. In data set [2], the LD50 fell in the range of 500 to 1000 mg/kg.

`CN(C)C[C@@H](c1ccc(Cl)c(Cl)c1)[C@@H]1CCCC[C@@H]1O` (relative stereo) [rac-(1S*)-cis-2-/(R*)-3,4-dichloro-α-[(dimethylamino)methyl]benzyl/cyclohexanol hydrochloride] registered an ED50 in data set [1] of 9.7 mg/kg. Further, the IC50 in the data set with serotonin-uptake is 21 nM. Moreover, the LD50 in data set [2] lay within 62.6 to 125 mg/kg.
